Results reported in patent US10851412B2, “Cell potency assay for therapeutic potential” (FATE THERAPEUTICS, INC., priority 2013, dated 2020).

System: Human umbilical cord blood
Assay: Cell potency assay: real-time PCR signature gene expression score of treated cord blood
Type: cell-based
Experimental: Human umbilical cord blood was treated ex vivo with 16,16, dimethyl prostaglandin E2 (dmPGE2) prior to transplantation. Real-time PCR transcript quantitation of gene expression from the treated cord blood cells was used to determine the therapeutic potential of the cells. RNA was extracted from an aliquot (100 uL) of the treated cord blood cells using the PicoPure RNA Isolation kit (Life Technologies) using the manufacturer's recommended protocol. Total RNA was quantified using the Nanodrop 2000 Spectrophotometer (Thermo Scientific). Complimentary DNA (cDNA) was reverse transcribed from 50 ng of total RNA using the High-Capacity cDNA Reverse Transcription Kit (Life Technologies).
Quantitative PCR was performed in triplicate for each gene in the amplified cDNA using StepOne Plus (Applied Biosystems) and Taqman gene expression assays (Life Technologies) and 40 cycles of real-time PCR. Results of the real-time PCR were analyzed using the StepOne Software v2.1 analysis package (Applied Biosystems). Expression values of the transcripts were normalized to the Taqman gene expression average for the housekeeping genes, GAPDH and HPRT1, to determine the relative expression levels (ΔCt values). […]

Compound: CCCCC(C)(C)[C@H](O)/C=C/[C@H]1[C@H](O)CC(=O)[C@@H]1C/C=C\CCCC(=O)O [dmPGE2, 16,16, dimethyl prostaglandin E2]
- gene expression in the group of signature genes (real-time PCR) (human umbilical cord blood after a two hour treatment): Increased gene expression
- gene expression score (standardized Euclidean distance model vs training set) (human umbilical cord blood treated ex vivo, about two hours at 37° C. with 10 μM dmPGE2, test samples n=10, mean +/- SD, positive scores cluster with samples having therapeutic potential): 16.8+/−2.2
